{
  "source": "patent US20080039532A1",
  "about": "“Compounds For Specific Viral Target” (priority 2004, published 2008)",
  "key": {"[1]": {"biological_target": "N36 peptide (CJC-1592) derived from the N-heptad repeat of HIV-1's gp41 glycoprotein (Human immunodeficiency virus type 1 group M subtype B, UniProt P04578)", "conditions": "1 hour incubation at room temperature; 17.5% acrylamide; compared to native C34", "protocol": "Following the 1 hour incubation at room temperature, at least 20 micrograms of total N36/C34 peptide mixture were loaded into each well and separated using Native-polyacrylamide gel electrophoresis (17.5% acrylamide) and stained using Coomassie Brilliant Blue. Unlike SDS-PAGE, Native-PAGE allows one to visualize the formation of six-helix bundles at approximately 28 kDa composed of three central N36 peptides surrounded by three C34 peptides. The formation of this structure and its analogs among other viruses is critical to the subsequent membrane fusion events."}, "HIV-1 Strain IIIB": {"test_system": "HIV-1 Strain IIIB", "experiment": "Determination of IC-50 of antiviral drugs by reverse transcriptase assay in PHA-stimulated CBMC", "assay_type": "cell-based", "conditions": "for RT Results (cpm) (Day 7): +drugs 7 days, replicate columns; for anti-HIV activity (inhibition of reverse-transcriptase activity of HIV-1) as compared to native C34: standard in vitro assay", "protocol": "Determination of IC-50 for Assessing the Activity of Antiviral Drugs Using HIV-1 Strain IIIB\nThe assay is performed in a 96-well plate with 500,000 PHA-stimulated CBMC (cord blood mononuclear cells) per well, 2 wells per drug concentration, with a minimum of 6 concentrations per drug. Media used is RPMI 1640 with 10% FBS, penicilin (100 U/ml), streptomycine (100 μg/ml), glutamine (2 mM), hydrocortisone (5 μg/ml), and IL-2 (20 U/ml).\nControl drug stocks are prepared by adding 2 ml of buffer to the native compounds or the reactive compounds. The stocks are stored at −20 degrees Celsius. The drug concentrations were determined by ConjuChem Inc. [drawing 76] Addition of the Compound Prior to Cell Infection\nTarget cells are incubated with different compounds concentrations for 30-60 minutes at 37 degrees Celsius prior to addition of virus (multiplicity of infection (MOI)=0.1-1.0). Following plating, target cells are in the continuous presence of the different concentrations of inhibitor for a total of 7 days.\nFollowing 3-4 days of incubation, each compound is replenished.\nReverse transcriptase assay is used to measure the IC50.\nCC50 (cytotoxic concentration) is also evaluated for all compounds.\n3TC is used as a control inhibitor"}},
  "note": "Several values for one entry are separate records, joined by “and”; a condition that tells them apart may be missing. Identical values can stand only once. Ends that are not written are not given here. linker‑R1‑R2‑M = not defined here",
  "data": [
    {"substance": "SEQ ID NO: 32: C34 with linker-R1-R2-M inserted at position Asp5 (Ac-WMEWK(linker‑R1‑R2‑M)REINNYTSLIHSLIEESQNQQERNEQELL; not fully specified; reading uncertain)", "values": [
      {"measurement": "binding of C34 derivative to N36 peptide on Native-PAGE", "setting": "[1]", "result": "does not impede C34 from binding to its target N36 peptide"},
      {"measurement": "RT Results (cpm) (Day 7)", "setting": "HIV-1 Strain IIIB; Conc 125 nm", "result": "6322 cpm and 6929 cpm and 5909 cpm"},
      {"measurement": "RT Results (cpm) (Day 7)", "setting": "HIV-1 Strain IIIB; Conc 600 nm", "result": "6477 cpm and 11889 cpm and 6030 cpm"},
      {"measurement": "RT Results (cpm) (Day 7)", "setting": "HIV-1 Strain IIIB; Conc 3000 nm", "result": "7967 cpm and 5896 cpm and 6208 cpm"},
      {"measurement": "efficiency of the binding element in binding to its viral target, compared to native C34", "setting": "HIV-1 Strain IIIB; inferred from anti-HIV activity, N-heptad repeat of HIV-1's gp41", "result": "as efficient in binding to its viral target as native C34"},
      {"measurement": "anti-HIV activity (inhibition of reverse-transcriptase activity of HIV-1) as compared to native C34", "setting": "HIV-1 Strain IIIB", "result": "as effectively as the native C34"}
    ]},
    {"substance": "SEQ ID NO: 93: native (unreactive, non-covalent) version of C34 (Ac-WMEWDREINNYTSLIHSLIEESQNQQERNEQELL) [reference compound]", "values": [
      {"measurement": "RT Results (cpm) (Day 7)", "setting": "HIV-1 Strain IIIB; Conc 125 nm", "result": "5854 cpm and 5040 cpm and 5219 cpm"},
      {"measurement": "RT Results (cpm) (Day 7)", "setting": "HIV-1 Strain IIIB; Conc 600 nm", "result": "4924 cpm and 5850 cpm and 5093 cpm"},
      {"measurement": "RT Results (cpm) (Day 7)", "setting": "HIV-1 Strain IIIB; Conc 3000 nm", "result": "5811 cpm and 6955 cpm and 5973 cpm"},
      {"measurement": "anti-HIV activity (inhibition of reverse-transcriptase activity of HIV-1) as compared to native C34", "setting": "HIV-1 Strain IIIB", "result": "essentially no loss in anti-HIV activity"}
    ]}
  ]
}
